Results reported in patent publication US8920785B2, “Cosmetic or dermatological preparations with a content of one or more thiazole derivates” (Beiersdorf AG, priority 2010, dated 2014).

These molecules were tested against T1, human tyrosinase (Homo sapiens, UniProt P14679) (assay: Enzyme test: conversion of L-DOPA to L-dopaquinone by human tyrosinase (MBTH, absorption at 490 nm)). Details: Concentration 100 μg/ml; substrate L-DOPA; read-out: Inhibition (% of control) of tyrosinase activity.
T1 sequence (P14679 19-529): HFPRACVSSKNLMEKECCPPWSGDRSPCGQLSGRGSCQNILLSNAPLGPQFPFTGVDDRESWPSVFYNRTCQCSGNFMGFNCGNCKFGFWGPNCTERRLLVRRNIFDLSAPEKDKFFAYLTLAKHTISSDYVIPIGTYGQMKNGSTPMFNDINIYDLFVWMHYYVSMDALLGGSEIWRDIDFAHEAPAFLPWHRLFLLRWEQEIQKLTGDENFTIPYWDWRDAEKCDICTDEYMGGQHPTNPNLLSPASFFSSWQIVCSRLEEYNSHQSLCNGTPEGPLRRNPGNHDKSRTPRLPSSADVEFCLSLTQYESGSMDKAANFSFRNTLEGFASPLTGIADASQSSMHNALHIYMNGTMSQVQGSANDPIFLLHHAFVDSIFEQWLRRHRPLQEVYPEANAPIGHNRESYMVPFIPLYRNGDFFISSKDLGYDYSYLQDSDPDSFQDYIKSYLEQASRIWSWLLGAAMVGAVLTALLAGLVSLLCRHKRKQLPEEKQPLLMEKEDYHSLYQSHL
Type: biochemical
Excerpt: The efficacy of the thiazoles has been verified using an enzyme test by measuring the conversion of L-DOPA to L-dopaquinone by a human tyrosinase. In this method that is known from the literature (Winder, A. J. and Harris H., New assays for the tyrosine hydroxylase and dopa oxidase activities of tyrosinase. Eur. J. Biochem. (1991), 198, 317-26), the reaction product L-dopaquinone is reacted with MBTH (3-methyl-2-benzothiazoline hydrazone) is converted to form a pink-colored substance, the increase of which over time is measured by absorption at 490 nm. In table one, efficacy data for some of the claimed substances are shown by way of example. It may be concluded therefrom that the substances according to the invention are extremely effective pigmentation-inhibiting substances.

Row | SMILES | inhibition at 100 µg/mL
1 | CCN(CC)CCNc1nc(-c2ccc(O)cc2O)cs1 [Compound 28] | 80.5%
2 | Oc1ccc(-c2csc(Nc3ccccc3)n2)c(O)c1 [Compound 2] | 100%
3 | O=C(Nc1nc(-c2ccc(O)cc2O)cs1)c1ccccc1 [Compound 26] | 100%
4 | CN(c1ccccc1)c1nc(-c2ccc(O)cc2)cs1 [Compound 22] | 87.9%
5 | Oc1ccc(-c2csc(NN3CCOCC3)n2)c(O)c1 [Compound 24] | 82.9%

More lines, now with the values ahead:

Row | inhibition at 100 µg/mL | SMILES
6 | 90.3% | Oc1ccc(-c2csc(N3CCOCC3)n2)c(O)c1 [Compound 25]
7 | 93.1% | Oc1ccc(-c2csc(Nc3ncccn3)n2)c(O)c1 [Compound 1]
8 | 61.3% | Oc1ccc(-c2csc(Nc3ncccn3)n2)cc1 [Compound 20]
9 | 87.6% | Oc1ccc(-c2csc(Nc3ccccn3)n2)cc1 [Compound 21]
